Reference: JP2014001205A, “動物の寄生虫防除剤” (Nissan Chemical Corp, priority 2012, dated 2014)

tested on: American dog tick (Dermacentor variabilis) first nymphs [American dog tick(Dermacentor variabilis)第1若虫]; test: Efficacy test against American dog tick (Test Example 2), glass container film contact; assay type: in vivo; details: 96 h, 10μg/cm2, 5 first nymphs (mixed sex), 25℃, 4 days, duplicate, read-out: efficacy (number with abnormal behaviour due to compound / number released × 100)

SMILES | pest or weed control at 10 µg/cm2
CCN(C(=O)COCSC)c1cn(-c2cccnc2)nc1Cl [1−067] | ≥ 80%
CSCCC(=O)N(C)c1cn(-c2cccnc2)nc1C [1−018, N−メチル−N−{3−メチル−1−(ピリジン−3−イル)−1H−ピラゾール−4−イル}−3−(メチルチオ)プロパンアミド] | ≥ 80%
CCN(C(=O)CC[S+]([O-])CC(F)(F)F)c1cn(-c2cccnc2)nc1Cl (stereo not drawn) [1−154] | ≥ 80%
CCCN(C(=O)C(C)CSC)c1cn(-c2cccnc2)nc1Cl (stereo not drawn) [1−066] | ≥ 80%
CCN(C(=O)CC[S+](C)[O-])c1cn(-c2cccnc2)nc1C (stereo not drawn) [1−110] | ≥ 80%
Cc1nn(-c2cccnc2)cc1N(C)C(N)=O [1−094] | ≥ 80%
CCSC(C)C(=NOC)Nc1cn(-c2cccnc2)nc1Cl (stereo not drawn) [1−356, N−{3−クロロ−1−(ピリジン−3−イル)−1H−ピラゾール−4−イル}−2−(エチルチオ)−N’−メトキシプロパンイミダミド] | ≥ 80%
CCCN(C(=O)CCSC)c1cn(-c2cccnc2)nc1Cl [1−063] | ≥ 80%
CCN(C(=O)CCC(F)=C(F)F)c1cn(-c2cccnc2)nc1Cl [1−418] | ≥ 80%
CCN(C(=O)COC(C)(C)C)c1cn(-c2cccnc2)nc1Cl [1−439] | ≥ 80%
C=C1CCN(c2cn(-c3cccnc3)nc2Cl)C1=O [1−133, 1−{3−クロロ−1−(ピリジン−3−イル)−1H−ピラゾール−4−イル}−3−メチレンピロリジン−2−オン] | ≥ 80%
CCN(C(=O)CCS(=O)(=O)CC(F)(F)F)c1cn(-c2cccnc2)nc1Cl [1−155] | ≥ 80%
CCN(C(=O)C(C[S+](C)[O-])OC)c1cn(-c2cccnc2)nc1Cl (stereo not drawn) [1−199] | ≥ 80%
CCON=C(CSC)C(=O)N(CC)c1cn(-c2cccnc2)nc1Cl (single isomer, unassigned) [1−157] | ≥ 80%
O=C(NCC(F)(F)F)Nc1cn(-c2cccnc2)nc1Cl [1−158] | ≥ 80%
C=CCN(C(=O)CCSC)c1cn(-c2cccnc2)nc1Cl [1−064] | ≥ 80%
CON=C(CSC)C(=O)N(C)c1cn(-c2cccnc2)nc1Cl (single isomer, unassigned) [1−142] | ≥ 80%
CC(C)(C)OC(=O)N(CC(F)(F)F)c1cn(-c2cccnc2)nc1Cl [1−324] | ≥ 80%
CCN(C(=O)CCSC)c1cnn(-c2cccnc2)c1 [1−044] | ≥ 80%
CCN(C(=O)CC(CSC)=NOC)c1cn(-c2cccnc2)nc1Cl [1−367] | ≥ 80%
CSCCN(C(C)=O)c1cn(-c2cccnc2)nc1Cl [1−186] | ≥ 80%
Cc1nn(-c2cccnc2)cc1NC(=O)NCC(F)(F)F [1−032] | ≥ 80%
CCN(C(C)=O)c1cn(-c2cccnc2)nc1Cl [1−149] | ≥ 80%
CCN(C(=O)CNC(=O)C(F)(F)F)c1cn(-c2cccnc2)nc1Cl [1−409] | ≥ 80%
CCN(C(=O)C(CSC)=NOC(C)C)c1cn(-c2cccnc2)nc1Cl [1−172] | ≥ 80%
CSCCC(=O)Nc1cnn(-c2cccnc2)c1 [1−006] | ≥ 80%
C=CC(=O)N(CC)c1cn(-c2cccnc2)nc1Cl [1−152, N−{3−クロロ−1−(ピリジン−3−イル)−1H−ピラゾール−4−イル}−N−エチルアクリルアミド] | ≥ 80%
CSCC(C)(C)C(=O)N(C)c1cn(-c2cccnc2)nc1Cl [1−134, N−{3−クロロ−1−(ピリジン−3−イル)−1H−ピラゾール−4−イル}−N,2,2−トリメチル−3−(メチルチオ)プロパンアミド] | ≥ 80%

SMILES | pest or weed control at 10 µg/cm2
CCSC(C)C(=S)Nc1cnn(-c2cccnc2)c1 (stereo not drawn) [1−480] | ≥ 80%
CCN(C(=O)CCSC)c1cn(-c2cccnc2)nc1Cl [1−033] | ≥ 80%
CC(C)(C)OC(=O)Nc1cn(-c2cccnc2)nc1Br [1−188, tert−ブチル 3−ブロモ−1−(ピリジン−3−イル)−1H−ピラゾール−4−イルカーバメート] | ≥ 80%
COCN(C(=O)C(C)CSC)c1cn(-c2cccnc2)nc1Cl (stereo not drawn) [1−086] | ≥ 80%
CCN(C(=O)C(C)SC(C)C)c1cn(-c2cccnc2)nc1Cl (stereo not drawn) [1−248] | ≥ 80%
CCCC(=O)N(CC)c1cn(-c2cccnc2)nc1Cl [1−151] | ≥ 80%
CC(C)(C)OC(=O)Nc1cn(-c2cccnc2)nc1Cl [1−046, tert−ブチル 3−クロロ−1−(ピリジン−3−イル)−1H−ピラゾール−4−イルカーバメート] | ≥ 80%
CCC(CSC)C(=O)N(C)c1cn(-c2cccnc2)nc1Cl (stereo not drawn) [1−084] | ≥ 80%
CSCCC(=O)Nc1cn(-c2cccnc2)nc1Cl [1−058] | ≥ 80%
CCCCON=C(CSC)C(=O)N(CC)c1cn(-c2cccnc2)nc1Cl [1−184] | ≥ 80%
CON=C(COCC(F)(F)F)C(=O)N(C)c1cn(-c2cccnc2)nc1Cl [1−273] | ≥ 80%
CCN(C(=O)CCSCC(F)(F)F)c1cn(-c2cccnc2)nc1Cl [1−124] | ≥ 80%
CCSCC(=O)N(CC)c1cn(-c2cccnc2)nc1Cl [1−107] | ≥ 80%
CC(=O)N(C)c1cn(-c2cccnc2)nc1Cl [1−148] | ≥ 80%
CCN(C(=O)CCSC(C)C)c1cn(-c2cccnc2)nc1Cl [1−123] | ≥ 80%
CC(C)(C)OC(=O)N(CC1CC1)c1cn(-c2cccnc2)nc1Cl [1−343] | ≥ 80%
CCN(C(=O)CC(=NOC)C(F)(F)F)c1cn(-c2cccnc2)nc1Cl [1−303] | ≥ 80%
CSCC(=O)N(C)C(C)=Nc1cn(-c2cccnc2)nc1C [3−004, N−メチル−N−[1−{3−メチル−1−(ピリジン−3−イル)−1H−ピラゾール−4−イルイミノ}エチル]−2−(メチルチオ)アセタミド] | ≥ 80%
CCN(C(=O)OC(C)(C)C)c1cn(-c2cccnc2)nc1Cl [1−056, tert−ブチル 3−クロロ−1−(ピリジン−3−イル)−1H−ピラゾール−4−イル(エチル)カーバメート] | ≥ 80%
CCON=C(C[S+](C)[O-])C(=O)N(CC)c1cn(-c2cccnc2)nc1Cl (stereo not drawn) [1−208] | ≥ 80%
CCN(C(=O)OC(C)(C)C)c1cn(-c2cccnc2)nc1OC [1−395] | ≥ 80%
CCN(C(=O)C(C)CS(C)(=O)=O)c1cn(-c2cccnc2)nc1C (stereo not drawn) [1−490] | ≥ 80%
CCN(C(=O)NCCSC)c1cn(-c2cccnc2)nc1C [1−060] | ≥ 80%
CS(=O)(=O)C1CCCN(c2cnn(-c3cccnc3)c2)C1=O (stereo not drawn) [1−035] | ≥ 80%
C=CCON=C(CSC)C(=O)N(CC)c1cn(-c2cccnc2)nc1Cl [1−222] | ≥ 80%
CCN(C(=O)C(CSC)c1ccccc1)c1cn(-c2cccnc2)nc1Cl (stereo not drawn) [1−216] | ≥ 80%
CCCON=C(CSC)C(=O)N(CC)c1cn(-c2cccnc2)nc1Cl [1−173] | ≥ 80%

same assay, conditions: 96 h, read-out: efficacy (number with abnormal behaviour due to compound / number released × 100)

SMILES | pest or weed control at 10 µg/cm2
CCN(C(=O)C(CSC)=NOCC[Si](C)(C)C)c1cn(-c2cccnc2)nc1Cl [1−268] | ≥ 80%

tested on: cat flea (Ctenocephalides felis) adults [ネコノミ(Ctenocephalides felis)成虫]; test: Efficacy test against cat flea (Test Example 1), glass container film contact; assay type: in vivo; details: 96 h, 10μg/cm2, 5 adults (mixed sex), 25℃, 4 days, duplicate, read-out: efficacy (number of insects with abnormal behaviour due to compound / number released × 100)

SMILES | pest or weed control at 10 µg/cm2
Cc1c(NC(=O)OC(C)(C)C)cnn1-c1cccnc1 [5−001, tert−ブチル 5−メチル−1−(ピリジン−3−イル)−1H−ピラゾール−4−イルカーバメート] | ≥ 80%
CNC(=S)Nc1cn(-c2cccnc2)nc1Cl [1−552] | ≥ 80%
CCOCC(=O)N(CC)c1cn(-c2cccnc2)nc1Cl [1−220] | ≥ 80%
CC(C)(C)OC(=O)N(CC#N)c1cn(-c2cccnc2)nc1Cl [1−522] | ≥ 80%
CC(CS(C)(=O)=O)C(=O)Nc1cn(-c2cccnc2)nc1Cl (stereo not drawn) [1−494] | ≥ 80%
CCN(C(=O)C(C)CSC)c1cn(-c2cccnc2)nc1C(F)(F)F (stereo not drawn) [1−523] | ≥ 80%
CCc1nn(-c2cccnc2)cc1N(CC)C(=O)C(C)CSC (stereo not drawn) [1−484] | ≥ 80%
CCN(C(=O)NCC(F)(F)F)c1cn(-c2cccnc2)nc1Br [1−587] | ≥ 80%
CCN(C(=O)[C@H](C)CSC)c1cn(-c2cccnc2)nc1Cl [1−048(S)−(−), (S)−(−)−N−{3−クロロ−1−(ピリジン−3−イル)−1H−ピラゾール−4−イル}−N−エチル−2−メチル−3−(メチルチオ)プロパンアミド] | ≥ 80%
CCNC(=O)NCC(=O)N(CC)c1cn(-c2cccnc2)nc1Cl [1−375] | ≥ 80%
CCSC(C)C(=Nc1cn(-c2cccnc2)nc1Cl)SC (stereo not drawn) [3−006, メチル N−3−クロロ−1−(ピリジン−3−イル)−1H−ピラゾール−4−イル−2−(エチルチオ)プロパンイミドチオエート] | ≥ 80%
CCN(C(=O)C(C)CS(=O)(=O)N(C)C)c1cn(-c2cccnc2)nc1Cl (stereo not drawn) [1−596] | ≥ 80%
C[C@H](CS(C)(=O)=O)C(=O)N(C)c1cn(-c2cccnc2)nc1Cl [1−054(S)−(+)] | ≥ 80%
CCN(C(=O)CCCSC)c1cn(-c2cccnc2)nc1Cl [1−520] | ≥ 80%
CCN(C(=O)CCCS(C)(=O)=O)c1cn(-c2cccnc2)nc1Cl [1−528] | ≥ 80%
CCNC(=O)N(C)c1cn(-c2cccnc2)nc1Cl [1−551] | ≥ 80%
CCNC(=S)Nc1cn(-c2cccnc2)nc1C [1−549] | ≥ 80%
CN(C(=O)NCC(F)(F)F)c1cn(-c2cccnc2)nc1Br [1−586] | ≥ 80%
CCN(C(=O)C(=O)Nc1ccccc1)c1cn(-c2cccnc2)nc1Cl [1−464] | ≥ 80%
CSCC(C)C(=O)Nc1cn(-c2cccnc2)nc1Cl (stereo not drawn) [1−074] | ≥ 80%
CCN(C(N)=O)c1cn(-c2cccnc2)nc1Cl [1−572] | ≥ 80%
CCN(C(=O)C(C)SC(C)=O)c1cn(-c2cccnc2)nc1Cl (stereo not drawn) [1−245] | ≥ 80%
C=CCNC(=O)N(CC)c1cn(-c2cccnc2)nc1Cl [1−595] | ≥ 80%
CCN(C(=O)NCC(F)(F)F)c1cn(-c2cccnc2)nc1Cl [1−501] | ≥ 80%

same assay, conditions: 96 h, read-out: efficacy (number of insects with abnormal behaviour due to compound / number released × 100)

SMILES | pest or weed control at 10 µg/cm2
O=C(NCCCl)Nc1cn(-c2cccnc2)nc1Cl [1−593] | ≥ 80%
